From ChEMBL document CHEMBL1143939, “Binding effect and design of a competitive inhibitory peptide for HMG-CoA reductase through modeling of an active peptide backbone” (Bioorg Med Chem, 2008)
The source made the active and inactive calls. The rule behind the calls is not given here. Non-standard residues stand in square brackets, D forms with d. Residues, ends and D or L forms follow the SMILES beside them. Phe(4-F) = N[C@@H](Cc1ccc(F)cc1)C(=O)O

Biological target: T1, 3-hydroxy-3-methylglutaryl-coenzyme A reductase (Mesocricetus auratus) (UniProt P09610)
T1 sequence (whole entry): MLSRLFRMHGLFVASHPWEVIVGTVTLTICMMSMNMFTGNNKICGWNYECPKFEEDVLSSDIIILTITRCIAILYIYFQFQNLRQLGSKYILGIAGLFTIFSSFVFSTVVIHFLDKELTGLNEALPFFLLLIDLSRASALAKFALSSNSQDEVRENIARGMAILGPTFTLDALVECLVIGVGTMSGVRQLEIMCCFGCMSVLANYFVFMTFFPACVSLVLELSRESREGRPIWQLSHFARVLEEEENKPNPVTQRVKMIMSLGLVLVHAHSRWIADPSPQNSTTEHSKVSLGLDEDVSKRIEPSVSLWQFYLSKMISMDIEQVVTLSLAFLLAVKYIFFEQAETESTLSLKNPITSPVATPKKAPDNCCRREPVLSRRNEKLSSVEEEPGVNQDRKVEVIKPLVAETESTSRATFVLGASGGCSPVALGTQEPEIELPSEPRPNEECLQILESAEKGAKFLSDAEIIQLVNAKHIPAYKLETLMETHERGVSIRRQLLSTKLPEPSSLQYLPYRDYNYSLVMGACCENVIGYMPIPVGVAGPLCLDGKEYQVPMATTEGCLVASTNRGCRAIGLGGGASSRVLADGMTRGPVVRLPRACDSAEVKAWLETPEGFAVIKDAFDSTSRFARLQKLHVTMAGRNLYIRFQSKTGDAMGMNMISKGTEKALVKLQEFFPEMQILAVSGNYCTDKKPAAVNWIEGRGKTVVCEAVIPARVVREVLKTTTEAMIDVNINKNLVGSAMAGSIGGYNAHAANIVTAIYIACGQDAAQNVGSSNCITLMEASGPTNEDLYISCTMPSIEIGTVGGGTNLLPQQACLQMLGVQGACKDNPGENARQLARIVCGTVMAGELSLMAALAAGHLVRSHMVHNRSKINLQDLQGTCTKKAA
Experiment: (§1) Inhibition of Syrian hamster HMGR

Row | Activity | Compound
1 | inactive | H-GGPTGG-OH
2 | inactive | CC(C)[C@H](NC(=O)CN)C(=O)N[C@@H](C)C(=O)N[C@@H](CCC(=O)O)C(=O)O (H-GVAE-OH)

Biological target: T2, 3-hydroxy-3-methylglutaryl-coenzyme A reductase (Mesocricetus auratus, UniProt P09610)
T2 sequence (P09610 whole entry): T1 sequence (whole entry)
Experiment: as §1

Row | Compound | IC50 [µM]
3 | CC[C@H](C)[C@H](N)C(=O)N[C@H](C(=O)N[C@@H](C)C(=O)N[C@@H](CCC(=O)O)C(=O)O)C(C)C (H-IVAE-OH) | 44.1
4 | CC[C@H](C)[C@H](N)C(=O)N[C@@H](C)C(=O)N[C@H](C(=O)N1CCC[C@H]1C(=O)O)C(C)C (H-IAVP-OH) | 97.1
5 | CC(C)[C@H](NC(=O)[C@H](C)NC(=O)[C@@H](N)Cc1ccc(O)cc1)C(=O)N[C@@H](CCC(=O)O)C(=O)O (H-YAVE-OH) | 52.6
6 | H-GLPEGG-OH | 27.2
7 | H-GLPTGG-OH | 19.4
8 | H-GLPDGG-OH | 22.3
9 | H-GFPDGG-OH | 1.5
10 | CC(C)[C@H](NC(=O)[C@@H](N)Cc1ccccc1)C(=O)N[C@@H](C)C(=O)N[C@@H](CCC(=O)O)C(=O)O (H-FVAE-OH) | 43.8
11 | CC(C)C[C@H](N)C(=O)N1CCC[C@H]1C(=O)N[C@@H](Cc1ccc(O)cc1)C(=O)N1CCC[C@H]1C(=O)O (H-LPYP-OH) | 485
12 | CC(C)[C@H](NC(=O)[C@@H](N)Cc1ccc(O)cc1)C(=O)N[C@@H](C)C(=O)N[C@@H](CCC(=O)O)C(=O)O (H-YVAE-OH) | 41.8

Other lines, results leading:

Row | IC50 [µM] | Compound
13 | 152 | H-IAVPGEVA-OH
14 | 1.7 | H-GFPEGG-OH
15 | 16.9 | H-GFPTGG-OH
16 | 3.8 | CC(C)[C@H](NC(=O)[C@@H](N)Cc1ccc(F)cc1)C(=O)N[C@@H](C)C(=O)N[C@@H](CCC(=O)O)C(=O)O (H-[Phe(4-F)]VAE-OH)
17 | 75.2 | CC[C@H](C)[C@H](N)C(=O)N[C@@H](C)C(=O)N[C@H](C(=O)N[C@@H](CCC(=O)O)C(=O)O)C(C)C (H-IAVE-OH)
